Laboratory results from article PMC9820345, “Metal Complexes of a 5-Nitro-8-Hydroxyquinoline-Proline Hybrid with Enhanced Water Solubility Targeting Multidrug Resistant Cancer Cells” (International Journal of Molecular Sciences, 2022).
Where two headings read alike, the source gives them in different places.

Experiments:
HSA site I (Trp-214) = target: T1, HSA site I (Trp-214) (Homo sapiens, UniProt P02768); test: HSA Trp-214 quenching by fluorometry (site I); assay type: binding; conditions: 1 µM HSA, pH 7.4 (PBS'), 24 h incubation
T1 construct: purchased Sigma-Aldrich (Darmstadt, Germany) A8763
Method: Therefore, tryptophan (Trp-214) quenching and dansylglycine (DG) site marker displacement experiments were conducted by fluorometry to obtain information about the binding at sites I and II, respectively, using the same approach reported in our former paper. A representative spectral series is shown in Figure 9a for the Trp-214 quenching experiment, upon the addition of the RhCp*–HQNO2-L-Pro complex and the computed binding constants (logKQ’ and logKDG’) which can be found in Figure 9b, in addition to the corresponding data for the HQCl-L-Pro complexes.
A Fluoromax (Horiba Jobin Yvon, Longjumeau, France) spectrofluorometer was utilized for fluorescence measurements using a 1 cm × 1 cm quartz cuvette. Samples contained 1 µM HSA or DG and 1 µM HSA at pH 7.4 (PBS’), and the complex concentration was varied between 0 and 53 µM. The measurements were carried out on individual samples. Excitation wavelengths were 295 nm for Trp-214 quenching, and 335 nm for the DG displacement studies, respectively. The calculated conditional stability constants for HSA–complex species were obtained using the computer program HypSpec. Calculations always were based on data obtained from at least two independent measurements. Self-absorbance and inner filter effect had to be taken into account, and corrections were made as was described in our former works.

Ac-Phe-His-Ala-NH2 (FHA) = test: Mixed-ligand adduct formation with His-containing oligopeptide FHA; assay type: binding
Method: (§1) According to numerous papers on the binding of half-sandwich organometallic complexes to HSA [35, 36], surface exposed histidine (His) side chains are the most feasible coordinating moieties. […] The equilibrium could be reached within 3–10 min in the case of the RhCp* complex on the basis of the UV-vis spectral changes (Figure S28), and similar conditional constants (logK’) were computed with these model compounds for the formation of mixed-ligand RhCp* complexes; namely logK’ 5.00 ± 0.1, 4.4 ± 0.1, 5.1 ± 0.1 were obtained in the case of FHA, AHA, and mim, respectively. […] In the case of the oligopeptides, formation of isomers was detected which might be explained by the existence of two chiral centers, namely the metal ion and His-CHα. The adduct formation of the RuCym complex with mim was quantitative, hindering the determination of the logK’ value (meaning logK’ > 5.5). […]
(§2) An Agilent Cary 8454 diode array spectrophotometer (Santa Clara, CA, USA) was used to obtain UV-vis spectra in the wavelength range 200–1000 nm, while spectra were recorded for the Fe(II)-containing samples using an Avantes (Avantes B.V., Apeldoorn, The Nederlands) AvaSpec-ULS2048CL-EVO spectrometer with an AvaLight-DHc light source and FDP-7UVIR200-2-VAR transmission dip probe. […]

[1] = assay type: physicochemical; conditions: for logK' (H2O/Cl−): I = 0.2 M KNO3, 25.0 °C
Method: Spectral changes in the UV-vis spectra (Figure 8c) reveal two transformation processes. […] As chloride ions can efficiently coordinate to these types of half-sandwich organometallic complexes, the water/chloride co-ligand exchange process was also studied by UV-vis spectrophotometry (at pH 7.4 or 6.0), and logK' (H2O/Cl^-) exchange constants were determined (Table 3) based on the spectral changes upon increasing the chloride concentration in the solution. For the RhCp* complex, a higher constant, namely stronger chloride ion affinity, was obtained. […] An Agilent Cary 8454 diode array spectrophotometer (Santa Clara, CA, USA) was used to obtain UV-vis spectra in the wavelength range 200-1000 nm, while spectra were recorded for the Fe(II)-containing samples using an Avantes (Avantes B.V., Apeldoorn, The Nederlands) AvaSpec-ULS2048CL-EVO spectrometer with an AvaLight-DHc light source and […] transmission dip probe. The titrations for the Fe(II)-containing samples were performed in a laboratory glove box (GP(Campus), Jacomex) (O2 content ≤ 1 ppm). The path length (l) was 1 cm in most cases (the actual l is always indicated in the legends of the figures). […] Spectra were always background and baseline corrected. The computer program HypSpec was used to obtain stability constants. Hydrolysis constants of the Fe(III), Fe(II), RuCym, and RhCp* species were included in the speciation models (see Table S4 with the data taken from References).

[2] = Mixed-ligand adduct formation with N-methylimidazole; assay type: binding; conditions: mim, pH 7.4
Method: as §1, §2

Ac-Ala-His-Ala-NH2 (AHA) = test: Mixed-ligand adduct formation with His-containing oligopeptide AHA; assay type: binding
Method: as §1, §2

[3] = pH 7.4, 1H NMR peak integrals, 24 h incubation

T1 sequence (P02768 25-609): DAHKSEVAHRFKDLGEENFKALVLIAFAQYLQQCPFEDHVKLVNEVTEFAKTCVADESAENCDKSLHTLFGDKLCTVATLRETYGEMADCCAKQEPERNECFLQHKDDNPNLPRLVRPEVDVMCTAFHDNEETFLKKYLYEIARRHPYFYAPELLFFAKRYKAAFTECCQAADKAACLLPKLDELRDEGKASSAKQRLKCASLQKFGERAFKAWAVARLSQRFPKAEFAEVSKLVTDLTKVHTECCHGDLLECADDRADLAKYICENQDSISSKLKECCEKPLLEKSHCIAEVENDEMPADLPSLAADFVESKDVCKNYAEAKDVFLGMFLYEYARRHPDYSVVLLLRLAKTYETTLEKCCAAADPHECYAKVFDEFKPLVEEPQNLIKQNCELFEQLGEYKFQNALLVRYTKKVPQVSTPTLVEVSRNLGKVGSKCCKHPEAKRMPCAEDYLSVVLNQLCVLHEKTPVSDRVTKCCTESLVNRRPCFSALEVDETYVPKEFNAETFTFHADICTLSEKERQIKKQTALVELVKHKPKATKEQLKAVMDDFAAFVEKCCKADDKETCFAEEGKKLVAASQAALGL

Row | Kd (HSA site I (Trp-214); read-out: quenching constant logKQ' (converted)) [µM] | logK' (H2O/Cl−) ([1]; pH 7.4) | quenching constant logKQ' (HSA site I (Trp-214)) | Compound | conditional constant logK' of mixed-ligand complex (Ac-Phe-His-Ala-NH2 (FHA); pH 7.4, UV-vis) | pKa (1) [1] | pKa (2) [1] | conditional constant logK' of mixed-ligand complex ([2]; UV-vis) | conditional constant logK' of mixed-ligand complex (Ac-Ala-His-Ala-NH2 (AHA); pH 7.4, UV-vis) | conditional constant logK' of adduct (Ac-Phe-His-Ala-NH2 (FHA); [3]) | logK' (H2O/Cl−) ([1]; pH 6.0) | conditional constant logK' of adduct ([2]; 1H NMR, 24 h incubation, adduct formation quantitative) | conditional constant logK' of adduct (Ac-Ala-His-Ala-NH2 (AHA); [3])
1 | 16.6 |  |  | O=C(O)[C@@H]1CCCN1Cc1cc([N+](=O)[O-])c2cccnc2c1O [HQNO2-L-Pro, (2S)-1-((8-hydroxy-5-nitroquinolin-7-yl)methyl)pyrrolidin-1-ium-2-carboxylate] |  |  |  |  |  |  |  |  | 
2 |  | 2.07 ± 0.03 | 5.1 | CC1=C(C)[C](C)([Rh]([Cl])[O]c2c(C[NH+]3CCC[C@H]3C(=O)O)cc([N+](=O)[O-])c3cccnc23)C(C)=C1C.[Cl-] [RhCp*-HQNO2-L-Pro, [RhCp*(HQNO2-L-Pro)Cl]Cl] | 5.00 ± 0.1 | 9.33 ± 0.03 | 10.34 ± 0.03 | 5.1 ± 0.1 | 4.4 ± 0.1 |  |  |  | 
3 |  |  |  | Cc1ccc(C(C)C)cc1.O=C(O)[C@@H]1CCC[NH+]1Cc1cc([N+](=O)[O-])c2ccc[n+]3c2c1[O][Ru-]3[Cl].[Cl-] [RuCym-HQNO2-L-Pro, [RuCym(HQNO2-L-Pro)Cl]Cl] |  | 8.55 ± 0.03 | 10.21 ± 0.03 |  |  | 3.9 ± 0.2 | 1.47 ± 0.01 | > 5.5 | 5.1 ± 0.2
